{
  "source": "patent US20200032271A1",
  "about": "“COMBINATION THERAPY WITH LIPOSOMAL ANTISENSE OLIGONUCLEOTIDES” (Bio-Path Holdings, Inc., priority 2016, published 2020)",
  "test_system": "Grb2",
  "assay": "Flow cytometry of Grb2 levels in circulating leukemia cells of patients",
  "assay_type": "in vivo, human",
  "conditions": "for Grb2 decrease (%) (Day 15) / Grb2 decrease (%) (Day 22 or end-of-treatment): individual subjects",
  "source_text": "(§1) Flow cytometry was used to determine the levels of Grb2 and pErk proteins in the circulating leukemia cells of patients who were on BP1001 single agent therapy, and were reported as median fluorescent intensity (MFI). MFI of Grb2 and pErk during treatment were compared to those at baseline.\nPeripheral blood was collected from patients in cohorts 3, 4, 5, and 6, before being dosed on Cycle 1 days 1, 8, 15 and 22, and Cycle 2 day 1. White blood cells were isolated from peripheral blood using BD Vacutainer CPT cell preparation tubes with sodium heparin (BD Dickinson), fixed and stored in −80° C. freezer. Flow cytometry was utilized to determine Grb2 and phosphorylated Erk1,2 (pErk) levels in CD33-expressing cells using a validated method (Flow Contract Site Laboratory, Bothell, Wash., USA).\nas §1, with “utilized” for “used”, “baseline (Table 7).” for “baseline.”",
  "note": "“And” between values parts separate entries of the source, which are not always exact repeats. Identical values can stand only once. [PEt] = P-ethoxy (ethyl phosphotriester) internucleoside linkage",
  "data": [
    {"substance": "BP1001: liposome-incorporated P-ethoxy antisense oligodeoxynucleotide (5′-ATATTTGGCGATGGCTTC-3′, SEQ ID NO: 1) specific to grb2 mRNA, in neutral DOPC liposomes (DNA, all [PEt], methylation of C not given here; incorporated in neutral DOPC liposomes)", "values": [
      {"measurement": "Grb2 decrease (%) (Day 15)", "setting": "cohort 3, 20 mg/m^2", "result": "0% (2×) and 56%"},
      {"measurement": "Grb2 decrease (%) (Day 22 or end-of-treatment)", "setting": "cohort 3, 20 mg/m^2", "result": "28% and 47% and 57%"},
      {"measurement": "Grb2 decrease (%) (Day 15)", "setting": "cohort 4, 40 mg/m^2", "result": "63% and 47%"},
      {"measurement": "Grb2 decrease (%) (Day 22 or end-of-treatment)", "setting": "cohort 4, 40 mg/m^2", "result": "54% and 0% and 34%"},
      {"measurement": "Grb2 decrease (%) (Day 15)", "setting": "cohort 5, 60 mg/m^2", "result": "0% and 57% and 54%"},
      {"measurement": "Grb2 decrease (%) (Day 22 or end-of-treatment)", "setting": "cohort 5, 60 mg/m^2", "result": "30% and 65% and 43%"},
      {"measurement": "Grb2 decrease (%) (Day 15)", "setting": "cohort 6, 90 mg/m^2", "result": "0% and 85% and 63%"},
      {"measurement": "Grb2 decrease (%) (Day 22 or end-of-treatment)", "setting": "cohort 6, 90 mg/m^2", "result": "0% and 91% and 40%"},
      {"measurement": "average decrease in Grb2 levels", "setting": "last measured sample", "result": 49, "unit": "%"},
      {"measurement": "samples with ≥25% decrease of Grb2 levels", "setting": "last measured sample (end of treatment or cycle 1 day 22), MFI vs baseline", "result": "10 out of 12"}
    ]}
  ]
}
